IC50 data for 24 molecules are collected here from US10287301B2 (Achillion Pharmaceuticals, Inc., priority 2015, dated 2019).

This experiment deals with Human Factor D (Homo sapiens (Human), UniProt P00746). As to the kind of experiment: Human Factor D Assay. The format is biochemical. Summed up: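 Thioesterase activity monitored with Z-L-Lys-SBzl plus Ellman's reagent (DTNB), each 100 μM final, after 5 min room-temperature compound preincubation of 80 nM human serum Factor D in pH 7.5 Tris (50 mM)/1M NaCl.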
Human Factor D, sequence (P00746 26-253): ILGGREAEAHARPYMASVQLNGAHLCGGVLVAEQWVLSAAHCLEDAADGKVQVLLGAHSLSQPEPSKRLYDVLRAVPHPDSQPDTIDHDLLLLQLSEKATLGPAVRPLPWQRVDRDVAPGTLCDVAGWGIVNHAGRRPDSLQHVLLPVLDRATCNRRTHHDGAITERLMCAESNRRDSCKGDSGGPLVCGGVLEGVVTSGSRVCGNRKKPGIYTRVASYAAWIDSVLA
[1] abbreviates: Table 3, Human Factor D 80 nM, substrate Z-L-Lys-SBzl, read-out: IC50 (Stars).
The mark [2] stands for this setting: Human Factor D 80 nM, substrate Z-L-Lys-SBzl, read-out: IC50.
[3] abbreviates: Human Factor D assay of Example 8, Table 2, read-out: IC50.
[4] abbreviates: Human Factor D, Table 3, read-out: IC50.

Read-outs that look alike come from different tables or passages of the source.

The IC50 is the point on the concentration scale where inhibition reaches its midpoint. For the molecule `CC(=O)c1nn(CC(=O)N2[C@H](C(=O)Nc3cccc(Br)n3)C[C@@]3(CO)C[C@@H]23)c2ccc(-c3cnc(C)nc3)cc12` [Compound 392, (1R,3S,5S)-2-(2-(3-Acetyl-5-(2-Methylpyrimidin-5-yl)-1H-indazol-1-yl)acetyl)-N-(6-bromopyridin-2-yl)-5-(hydroxymethyl)-2-azabicyclo[3.1.0]hexane-3-carboxamide], the IC50 under setting [1] is under 1000 nM.
Still for that read-out and setting: the same measure for `CC(=O)c1nn(CC(=O)N2C[C@H](F)C[C@H]2C(=O)NC/C(F)=C(/C)c2cccc(Cl)c2)c2ccc(-c3cnc(C)nc3)cc12` [Compound 503, (2S,4R)-1-(2-(3-acetyl-5-(2-methylpyrimidin-5-yl)-1H-indazol-1-yl)acetyl)-N-((E)-3-(3-chlorophenyl)-2-fluorobut-2-en-1-yl)-4-fluoropyrrolidine-2-carboxamide]: under 1000 nM; for `CC(=O)c1nn(CC(=O)N2[C@@H]3C[C@@H]3C[C@H]2C(=O)Nc2ccn(CC(F)(F)F)n2)c2ccc(-c3cnc(C)nc3)cc12` [Compound 363, (1R,3S,5R)-2-(2-(3-acetyl-5-(2-methylpyrimidin-5-yl)-1H-indazol-1-yl)acetyl)-N-(1-(2,2,2-trifluoroethyl)-1H-pyrazol-3-yl)-2-azabicyclo[3.1.0] hexane-3-carboxamide]: under 1000 nM.
For `NC(=O)c1nn(CC(=O)N2C[C@H](F)C[C@H]2C(=O)N[C@@H]2CCC[C@H]2O)c2ccc(-c3ccnnc3)cc12` [Compound 145, 1-(2-((2S,4R)-4-fluoro-2-((1R,2R)-2-hydroxycyclopentylcarbamoyl)pyrrolidin-1-yl)-2-oxoethyl)-5-(pyridazin-4-yl)-1H-indazole-3-carboxamide], under setting [2], the IC50 is over 10000 nM.
For the molecule `CC(=O)c1nn(CC(=O)N2C[C@H](F)C[C@H]2C(=O)Nc2nn(C)c3ncccc23)c2ccc(-c3cnc(C)nc3)cc12` [Compound 439, (2S,4R)-1-(2-(3-Acetyl-5-(2-methylpyrimidin-5-yl)-1H-indazol-1-yl)acetyl)-4-fluoro-N-(1-methyl-1H-pyrazolo[3,4-b]pyridin-3-yl)pyrrolidine-2-carboxamide], the half-maximal inhibitory concentration (IC50) under setting [1] was under 1000 nM.
With `CC(=O)c1nn(CC(=O)N2C[C@H](F)C[C@H]2C(=O)Nc2cccc(OC(F)(F)F)c2F)c2ccc(-c3cnc4cc(C)nn4c3)cc12` [Compound 256, (2S,4R)-1-(2-(3-acetyl-5-(2-methylpyrazolo[1,5-a]pyrimidin-6-yl)-1H-indazol-1-yl)acetyl)-4-fluoro-N-(2-fluoro-3-(trifluoromethoxy)phenyl)pyrrolidine-2-carboxamide], the IC50 under setting [3] is under 1000 nM.
As to `NC(=O)c1nn(CC(=O)N2[C@@H]3C[C@@H]3C[C@H]2C(=O)Nc2cccc(-c3ccccc3Cl)c2F)c2ccc(-c3cncnc3)cc12` [Compound 6, 1-(2-((1R,3S,5R)-3-((2′-Chloro-2-fluoro-[1,1′-biphenyl]-3-yl)carbamoyl)-azabicyclo[3.1.0]hexan-2-yl)-2-oxoethyl)-5-(pyrimidin-5-yl)-1H-indazole-3-carboxamide], the IC50 under setting [2] was under 1000 nM.
Take `CC(=O)c1nn(CC(=O)N2C[C@H](F)C[C@H]2C(=O)Nc2cccc(Br)n2)c2ccc(-c3cnc4c(C#N)c(C)nn4c3)cc12` [Compound 262, (2S,4R)-1-(2-(3-acetyl-5-(3-cyano-2-methylpyrazolo[1,5-a]pyrimidin-6-yl)-1H-indazol-1-yl)acetyl)-N-(6-bromopyridin-2-yl)-4-fluoropyrrolidine-2-carboxamide]: under setting [3], the IC50 was under 1000 nM.
`CC(=O)c1cn(CC(=O)N2C[C@H](F)C[C@H]2C(=O)Nc2cccc(O)n2)c2ccc(-c3ccnnc3)cc12` [Compound 144, (2S,4R)-1-(2-(3-acetyl-5-(pyridazin-4-yl)-1H-indol-1-yl)acetyl)-4-fluoro-N-(6-hydroxypyridin-2-yl)pyrrolidine-2-carboxamide]: the half-inhibitory concentration (IC50) under setting [2] was over 10000 nM.
As to `CC(=O)c1nn(CC(=O)N2C[C@H](F)C[C@H]2C(=O)Nc2cccc(Br)n2)c2ccc(-c3cnc4ncccn34)cc12` [Compound 245, (2S,4R)-1-(2-(3-acetyl-5-(imidazo[1,2-a]pyrimidin-3-yl)-1H-indazol-1-yl)acetyl)-N-(6-bromopyridin-2-yl)-4-fluoropyrrolidine-2-carboxamide], the IC50 under setting [3] is under 1000 nM.
In the case of `NC(=O)c1nn(CC(=O)N2C[C@H](F)C[C@H]2C(=O)Nc2cccc(-c3ccccc3Cl)c2F)c2ccc(-c3cn[nH]c3)cc12` [Compound 1], the IC50 under setting [2] was under 1000 nM.
`CC(=O)c1nn(CC(=O)N2C[C@H](F)C[C@H]2C(=O)Nc2cccc(-c3ccccc3Cl)c2F)c2ccc(-c3cnc4ccnn4c3)cc12` [Compound 237, (2S,4R)-1-(2-(3-acetyl-5-(pyrazolo[1,5-a]pyrimidin-6-yl)-1H-indazol-1-yl)acetyl)-N-(2′-chloro-2-fluorobiphenyl-3-yl)-4-fluoropyrrolidine-2-carboxamide]: the IC50 under setting [3] is under 1000 nM.
With `NC(=O)c1nn(CC(=O)N2C[C@H](F)C[C@H]2C(=O)Nc2ccccc2N2CCOC2=O)c2ccc(-c3ccnnc3)cc12` [Compound 65, 1-(2-((2S,4R)-4-fluoro-2-(2-(2-oxooxazolidin-3-yl)phenylcarbamoyl)pyrrolidin-1-yl)-2-oxoethyl)-5-(pyridazin-4-yl)-1H-indazole-3-carboxamide], the IC50 under setting [2] is over 10000 nM.
Regarding `CC(=O)c1cn(CC(=O)N2C[C@H](F)C[C@H]2C(=O)Nc2cccc(Br)n2)c2ccc(-c3cnc(C4CC4)nc3)cc12` [Compound 216, (2S,4R)-1-(2-(3-acetyl-5-(2-cyclopropylpyrimidin-5-yl)-1H-indol-1-yl)acetyl)-N-(6-bromopyridin-2-yl)-4-fluoropyrrolidine-2-carboxamide], the IC50 under setting [3] is under 1000 nM.
In the case of `CC(=O)c1cn(CC(=O)N2C[C@H](F)C[C@H]2C(=O)Nc2cccc3c2NC(=O)C(C)O3)c2ccc(-c3ccnnc3)cc12` (stereo partly drawn) [Compound 153, (2S,4R)-1-(2-(3-acetyl-5-(pyridazin-4-yl)-1H-indol-1-yl)acetyl)-4-fluoro-N-(2-methyl-3-oxo-3,4-dihydro-2H-benzo[b][1,4]oxazin-5-yl)pyrrolidine-2-carboxamide], the 50% inhibitory concentration (IC50) under setting [2] is over 10000 nM.
With `CC(=O)c1nn(CC(=O)N2C[C@H](F)C[C@H]2C(=O)Nc2cccc(Br)[n+]2[O-])c2ccc(-c3cnc(C)[n+]([O-])c3)cc12` [Compound 744, 5-(3-Acetyl-1-(2-((2S,4R)-2-((6-bromo-1-oxidopyridin-2-yl)carbamoyl)-4-fluoropyrrolidin-1-yl)-2-oxoethyl)-1H-indazol-5-yl)-2-methylpyrimidine 1-oxide], the IC50 lay within 1000 to 10000 nM.
As to `CC(=O)c1nn(CC(=O)N2C[C@H](F)C[C@H]2C(=O)NC2CCCC(C)(C)C2)c2ccc(-c3cnc(C)nc3)cc12` (stereo partly drawn) [Compound 464, (2S,4R)-1-(2-(3-acetyl-5-(2-methylpyrimidin-5-yl)-1H-indazol-1-yl)acetyl)-N-(3,3-dimethylcyclohexyl)-4-fluoropyrrolidine-2-carboxamide], the half-inhibitory concentration (IC50) under setting [1] is under 1000 nM.
As to `CC(=O)c1nn(CC(=O)N2C[C@H](F)C[C@H]2C(=O)Nc2cnc(C)c(Br)n2)c2ccc(-c3cnc4cc(C5CC5)nn4c3)cc12` [Compound 675, (2S,4R)-1-(2-(3-Acetyl-5-(2-cyclopropylpyrazolo[1,5-a]pyrimidin-6-yl)-1H-indazol-1-yl)acetyl)-N-(6-bromo-5-methylpyrazin-2-yl)-4-fluoropyrrolidine-2-carboxamide], the IC50 under setting [4] was under 1000 nM.
Regarding `CC(=O)c1cn(CC(=O)N2C[C@H](F)C[C@H]2C(=O)Nc2cccc(-c3ccccc3Cl)c2F)c2ccc(-c3cnc(C(N)=O)nc3)cc12` [Compound 209, 5-(3-acetyl-1-(2-((2S,4R)-2-(2′-chloro-2-fluorobiphenyl-3-ylcarbamoyl)-4-fluoropyrrolidin-1-yl)-2-oxoethyl)-1H-indol-5-yl)pyrimidine-2-carboxamide], under setting [3], the half-maximal inhibitory concentration (IC50) was under 1000 nM.
For `CC(=O)c1cn(CC(=O)N2C[C@H](F)C[C@H]2C(=O)Nc2cccc(Br)n2)c2ccc(-c3cccc(Cl)c3)cc12` [Compound 119, (2S,4R)-1-(2-(3-acetyl-5-(3-chlorophenyl)-1H-indol-1-yl)acetyl)-N-(6-bromopyridin-2-yl)-4-fluoropyrrolidine-2-carboxamide], the concentration for half-maximal inhibition (IC50) under setting [2] was under 1000 nM.
As to `CC(=O)c1ccc(Cl)c(-c2cccc(NC(=O)[C@@H]3C[C@H]4C[C@H]4N3C(=O)Cn3nc(C(N)=O)c4sc(-c5cnc(C)nc5)nc43)c2F)c1` [Compound 717, 1-(2-((1R,3S,5R)-3-(5′-Acetyl-2′-chloro-2-fluorobiphenyl-3-ylcarbamoyl)-2-azabicyclo[3.1.0]hexan-2-yl)-2-oxoethyl)-5-(2-methylpyrimidin-5-yl)-1H-pyrazolo[3,4-d]thiazole-3-carboxamide], the IC50 under setting [4] was under 1000 nM.
The same measure, in the same setting: the same measure for `CC(=O)c1cccc(NC(=O)[C@@H]2C[C@@H](F)CN2C(=O)Cn2nc(C(C)=O)c3cc(-c4cnc(C)nc4)ccc32)n1` [Compound 584, (2S,4R)-1-(2-(3-Acetyl-5-(2-methylpyrimidin-5-yl)-1H-indazol-1-yl)acetyl)-N-(6-acetylpyridin-2-yl)-4-fluoropyrrolidine-2-carboxamide]: under 1000 nM.
Take `CCc1ccc(Br)nc1NC(=O)[C@@H]1C[C@@H](F)CN1C(=O)Cn1nc(C(C)=O)c2cc(-c3cnc(C)nc3)ccc21` [Compound 534, (2S,4R)-1-(2-(3-Acetyl-5-(2-methylpyrimidin-5-yl)-1H-indazol-1-yl)acetyl)-N-(6-bromo-3-ethylpyridin-2-yl)-4-fluoropyrrolidine-2-carboxamide]: the half-inhibitory concentration (IC50) under setting [1] was under 1000 nM.
Consider `NC(=O)c1nn(CC(=O)N2C[C@H](F)C[C@H]2C(=O)Nc2ccccc2-c2nc3ccccc3s2)c2ccc(-c3ccnnc3)cc12` [Compound 41, 1-(2-((2S,4R)-2-(2-(benzo[d]thiazol-2-yl)phenylcarbamoyl)-4-fluoropyrrolidin-1-yl)-2-oxoethyl)-5-(pyridazin-4-yl)-1H-indazole-3-carboxamide], for which the IC50 under setting [2] was over 10000 nM.
